{
  "source": "patent US8021854B2",
  "about": "“Method of treating vascular disease” (priority 2007, dated 2011)",
  "origin": "cited, not measured here",
  "key": {"[1]": {"system": "vaso-occlusive disease", "conditions": "low doses of aspirin"}, "[2]": {"system": "patients with thrombocythemic states", "conditions": "942 patients"}, "[3]": {"conditions": "in vivo"}, "[4]": {"system": "patients with and without significant cardiovascular history"}, "[5]": {"system": "patients with essential thrombocythemia at high risk for vascular events", "conditions": "versus hydroxyurea group"}, "[6]": {"system": "patients with myeloproliferative disorders", "conditions": "577 patients"}, "[7]": {"system": "platelets of patients with essential thrombocythaemia", "conditions": "during therapy"}},
  "note": "Read-outs that look alike come from different tables or passages of the source.",
  "data": [
    {"smiles": "CC(=O)Oc1ccccc1C(=O)O", "note": "[aspirin, Acetyl salicylic acid]", "values": [
      {"measurement": "incidence of major haemorrhage", "setting": "[1]", "value": "less than 1%"},
      {"measurement": "morbidity and mortality reductions", "setting": "[1]; vaso-occlusive disease, Physician's Health Study", "value": 45, "unit": "%"}
    ]},
    {"smiles": "O=C1CN2Cc3c(ccc(Cl)c3Cl)N=C2N1", "note": "[anagrelide]", "values": [
      {"measurement": "deaths", "setting": "[2]", "value": 50},
      {"measurement": "deaths from cardiac causes", "setting": "[2]", "value": 15},
      {"measurement": "fluid retention", "setting": "[2]", "value": 22, "unit": "%"},
      {"measurement": "palpitations", "setting": "[2]", "value": 26, "unit": "%"},
      {"measurement": "patients who discontinued the agent due to adverse events", "setting": "[2]", "value": "Thirteen"},
      {"measurement": "adverse reaction: chest pain", "setting": "[3]", "value": 8, "unit": "%"},
      {"measurement": "adverse reaction: peripheral edema", "setting": "[3]", "value": 9, "unit": "%"},
      {"measurement": "adverse reaction: tachycardia", "setting": "[3]", "value": 8, "unit": "%"},
      {"measurement": "severity of cardiovascular events (palpitations, edema, tachycardia)", "setting": "[4]; 492 patients", "value": "generally mild and did not increase cardiovascular disease morbidity"},
      {"measurement": "patients experiencing cardiovascular adverse events", "setting": "[4]; patients with history of cardiac disease, 22 of 90", "value": 24, "unit": "%"},
      {"measurement": "patients experiencing cardiovascular adverse events", "setting": "[4]; patients without history of cardiac disease, 30 of 402, p=0.0001", "value": 7, "unit": "%"},
      {"measurement": "withdrawal from assigned treatment", "setting": "[5]; P<0.001", "value": "more likely to withdraw"},
      {"measurement": "odds ratio of reaching the primary end point", "setting": "[5]; median follow-up 39 months, 95 percent CI 1.04 to 2.37, P=0.03", "value": 1.57},
      {"measurement": "study population that discontinued therapy due to adverse events", "setting": "[6]; mean treatment duration 65 weeks", "value": "Sixteen"},
      {"measurement": "discontinuation of therapy due to cardiovascular adverse events", "setting": "[6]; 23 patients", "value": 4, "unit": "%"},
      {"measurement": "palpitations and tachycardia (patients)", "setting": "[6]; 209 patients", "value": 36, "unit": "%"},
      {"measurement": "patients who died from cardiovascular adverse events", "setting": "[6]; four had preexisting coronary artery disease", "value": "Seven"},
      {"measurement": "congestive heart failure (patients)", "setting": "[6]; fourteen patients", "value": 2.4, "unit": "%"},
      {"measurement": "functional or chemical platelet abnormalities", "setting": "[7]", "value": "no functional or chemical abnormality was improved"},
      {"measurement": "platelet count", "setting": "[7]", "value": "corrected"},
      {"measurement": "platelet volume", "setting": "[7]", "value": "constantly increased"}
    ]}
  ]
}
